# Like-named read-outs stand apart in the source and are kept apart here.
# Columns and labels:
# Assay in all cases: Antibacterial activity MIC, two-fold agar dilution
# Format in all cases: cell-based
# [1] = system: Proteus mirabilis ATCC 25933; settings: for MIC: read-out: Antibacterial Activity MIC
# In short: (§1)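 Incubation lasted 20 hours at 37° C. after 2 μl of each standard strain (10^7 CFU per ml) was placed on Muller-Hinton agar carrying two-fold serially diluted compound; MIC was then taken.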
# [2] = system: Micrococcus luteus ATCC 9341; settings: for MIC: read-out: Antibacterial Activity MIC
# In short: as §1
# [3] = system: Klebsiella pneumoniae ATCC 10031; settings: for MIC: read-out: Antibacterial Activity MIC
# In short: as §1
# [4] = system: Serratia marcescens ATCC 27117; settings: for MIC: read-out: Antibacterial Activity MIC
# In short: as §1
# [5] = system: Providencia rettgeri ATCC 9250; settings: 37° C., 20 hours; for MIC: ATCC9250, Muller-Hinton agar
# In short: as §1
# [6] = system: Salmonella typhimurium ATCC 14028; settings: for MIC: Salmonella enterica, read-out: Antibacterial Activity MIC
# In short: as §1
# [7] = system: Enterobacter aerogenes ATCC 29751; settings: for MIC: Klebsiella aerogenes, read-out: Antibacterial Activity MIC
# In short: as §1
# [8] = system: Morganella morganii ATCC 8076h; settings: Muller-Hinton agar, 37° C., 20 hours; for MIC: ATCC8076H
# In short: as §1
# [9] = system: Shigella flexneri ATCC 11836; settings: 37° C., 20 hours; for MIC: ATCC11836, Muller-Hinton agar
# In short: as §1
# [10] = system: Enterobacter cloacae ATCC 27508; settings: for MIC: read-out: Antibacterial Activity MIC
# In short: as §1
# [11] = system: Bacillus megaterium ATCC 9885; settings: for MIC: Priestia megaterium, read-out: Antibacterial Activity MIC
# In short: as §1
# [12] = system: Proteus vulgaris ATCC 6059; settings: for MIC: read-out: Antibacterial Activity MIC
# In short: as §1
# [13] = system: Pseudomonas aeruginosa ATCC 10145; settings: for MIC: read-out: Antibacterial Activity MIC
# In short: as §1
# [14] = system: Staphylococcus aureus ATCC 6538p; settings: for MIC: ATCC6538P, read-out: Antibacterial Activity MIC
# In short: as §1
# [15] = system: Acinetobacter calcoaceticus ATCC 15473; settings: for MIC: read-out: Antibacterial Activity MIC
# In short: as §1
# [16] = system: Escherichia coli ATCC 10536; settings: 37° C., 20 hours; for MIC: ATCC10536, Muller-Hinton agar
# In short: as §1
# [17] = system: Streptococcus faecalis ATCC 29212; settings: for MIC: Enterococcus faecalis, read-out: Antibacterial Activity MIC
# In short: as §1
# [18] = system: Pseudomonas aeruginosa ATCC 25619; settings: for MIC: read-out: Antibacterial Activity MIC
# In short: as §1
# [19] = system: Shigella sonnei ATCC 11060; settings: 37° C., 20 hours; for MIC: ATCC11060, Muller-Hinton agar
# In short: as §1
# [20] = system: Bacillus cereus ATCC 11778; settings: for MIC: read-out: Antibacterial Activity MIC
# In short: as §1
# [21] = system: Pseudomonas aeruginosa ATCC 27853; settings: for MIC: read-out: Antibacterial Activity MIC
# In short: as §1
# [22] = system: Escherichia coli ATCC 25922; settings: 37° C., 20 hours; for MIC: ATCC25922, Muller-Hinton agar
# In short: as §1
# [23] = system: Citrobacter freundii ATCC 8090; settings: for MIC: read-out: Antibacterial Activity MIC
# In short: as §1
# [24] = system: Staphylococcus aureus ATCC 10537; settings: for MIC: read-out: Antibacterial Activity MIC
# In short: as §1
# [25] = system: Staphylococcus epidermidis ATCC 12228; settings: for MIC: read-out: Antibacterial Activity MIC
# In short: as §1
# [26] = Salmonella typhimurium ATCC 14028, Muller-Hinton agar, 37° C., 20 hours
# [27] = Staphylococcus aureus ATCC 6538p, Muller-Hinton agar, 37° C., 20 hours
molecule,measurement,setting,value
"CC(C)(O/N=C(\C(=O)N[C@@H]1C(=O)N2C(C(=O)[O-])=C(C[n+]3ccccc3)CS[C@H]12)c1csc(N)n1)C(=O)O [Ceftazidime, reference compound]",MIC,"[1]; Proteus mirabilis, ATCC25933, 20 h",0.063 µg/mL
same,MIC,"[2]; Micrococcus luteus, ATCC9341, 20 h",1 µg/mL
same,MIC,"[3]; Klebsiella pneumoniae, ATCC10031, 20 h",0.13 µg/mL
same,MIC,"[4]; Serratia marcescens, ATCC27117, 20 h",0.13 µg/mL
same,MIC,[5],≤ 0.008 µg/mL
same,MIC,[6]; 20 h,0.25 µg/mL
same,MIC,"[7]; ATCC29751, 20 h",4 µg/mL
same,MIC,[8],0.016 µg/mL
same,MIC,[9],0.063 µg/mL
same,MIC,"[10]; Enterobacter cloacae, ATCC27508, 20 h",0.063 µg/mL
same,MIC,"[11]; ATCC9885, 20 h",0.25 µg/mL
same,MIC,"[12]; Proteus vulgaris, ATCC6059, 20 h",0.063 µg/mL
same,MIC,"[13]; Pseudomonas aeruginosa, ATCC10145, 20 h",2 µg/mL
same,MIC,"[14]; Staphylococcus aureus, 20 h",16 µg/mL
same,MIC,"[15]; Acinetobacter calcoaceticus, ATCC15473, 20 h",4 µg/mL
same,MIC,[16],0.13 µg/mL
same,MIC,"[17]; ATCC29212, 20 h",> 128 µg/mL
same,MIC,"[18]; Pseudomonas aeruginosa, ATCC25619, 20 h",1 µg/mL
same,MIC,[19],0.063 µg/mL
same,MIC,"[20]; Bacillus cereus, ATCC11778, 20 h",128 µg/mL
same,MIC,"[21]; Pseudomonas aeruginosa, ATCC27853, 20 h",1 µg/mL
same,MIC,[22],0.13 µg/mL
same,MIC,"[23]; Citrobacter freundii, ATCC8090, 20 h",1 µg/mL
same,MIC,"[24]; Staphylococcus aureus, ATCC10537, 20 h",8 µg/mL
same,MIC,"[25]; Staphylococcus epidermidis, ATCC12228, 20 h",8 µg/mL
"CC[n+]1c(SCC2=C(C(=O)[O-])N3C(=O)[C@@H](NC(=O)/C(=N\OC(C)C(=O)O)c4csc(N)n4)[C@H]3SC2)cc(N)nc1N (stereo partly drawn) [Compound I-4, (6R,7R)-7-[(Z)-2-(2-aminothiazol-4-yl)-2-(R,S-carboxyeth-1-oxyimino)acetamido]-3-(2,6-diamino-3-ethylpyrimidinium-4-yl)thiomethyl-3-cephem-4-carboxylate]",MIC,"[1]; ATCC25933, Proteus mirabilis ATCC 25933, Muller-Hinton agar, 37° C., 20 hours",0.31 µg/mL
same,MIC,"[2]; ATCC9341, Micrococcus luteus ATCC 9341, Muller-Hinton agar, 37° C., 20 hours",0.5 µg/mL
same,MIC,"[3]; ATCC10031, Klebsiella pneumoniae ATCC 10031, Muller-Hinton agar, 37° C., 20 hours",0.031 µg/mL
same,MIC,"[4]; ATCC27117, Serratia marcescens ATCC 27117, Muller-Hinton agar, 37° C., 20 hours",0.13 µg/mL
same,MIC,[5],≤ 0.008 µg/mL
same,MIC,[6]; [26],0.5 µg/mL
same,MIC,"[7]; ATCC29751, Enterobacter aerogenes ATCC 29751, Muller-Hinton agar, 37° C., 20 hours",1 µg/mL
same,MIC,[8],≤ 0.008 µg/mL
same,MIC,[9],0.031 µg/mL
same,MIC,"[10]; ATCC27508, Enterobacter cloacae ATCC 27508, Muller-Hinton agar, 37° C., 20 hours",0.016 µg/mL
same,MIC,"[11]; ATCC9885, Bacillus megaterium ATCC 9885, Muller-Hinton agar, 37° C., 20 hours",0.25 µg/mL
same,MIC,"[12]; ATCC6059, Proteus vulgaris ATCC 6059, Muller-Hinton agar, 37° C., 20 hours",0.063 µg/mL
same,MIC,"[13]; ATCC10145, Pseudomonas aeruginosa ATCC 10145, Muller-Hinton agar, 37° C., 20 hours",2 µg/mL
same,MIC,[14]; [27],8 µg/mL
same,MIC,"[15]; ATCC15473, Acinetobacter calcoaceticus ATCC 15473, Muller-Hinton agar, 37° C., 20 hours",4 µg/mL
same,MIC,[16],0.13 µg/mL
same,MIC,"[17]; ATCC29212, Streptococcus faecalis ATCC 29212, Muller-Hinton agar, 37° C., 20 hours",> 128 µg/mL
same,MIC,"[18]; ATCC25619, Pseudomonas aeruginosa ATCC 25619, Muller-Hinton agar, 37° C., 20 hours",1 µg/mL
same,MIC,[19],0.25 µg/mL
same,MIC,"[20]; ATCC11778, Bacillus cereus ATCC 11778, Muller-Hinton agar, 37° C., 20 hours",64 µg/mL
same,MIC,"[21]; ATCC27853, Pseudomonas aeruginosa ATCC 27853, Muller-Hinton agar, 37° C., 20 hours",2 µg/mL
same,MIC,[22],0.13 µg/mL
same,MIC,"[23]; ATCC8090, Citrobacter freundii ATCC 8090, Muller-Hinton agar, 37° C., 20 hours",0.13 µg/mL
same,MIC,"[24]; ATCC10537, Staphylococcus aureus ATCC 10537, Muller-Hinton agar, 37° C., 20 hours",4 µg/mL
same,MIC,"[25]; ATCC12228, Staphylococcus epidermidis ATCC 12228, Muller-Hinton agar, 37° C., 20 hours",1 µg/mL
"(6R,7R)-7-[(Z)-2-(2-aminothiazol-4-yl)-2-(2-propyn-1-oxyimino)acetamido]-3-(2,6-diamino-3-methylpyrimidinium-4-yl)thiomethyl-3-cephem-4-carboxylate [Compound I-9]",Antibacterial Activity MIC,"[1]; Proteus mirabilis ATCC 25933, Muller-Hinton agar, 37° C., 20 hours",0.016 µg/mL
same,Antibacterial Activity MIC,"[2]; Micrococcus luteus ATCC 9341, Muller-Hinton agar, 37° C., 20 hours",0.063 µg/mL
same,Antibacterial Activity MIC,"[3]; Klebsiella pneumoniae ATCC 10031, Muller-Hinton agar, 37° C., 20 hours",0.063 µg/mL
same,Antibacterial Activity MIC,"[4]; Serratia marcescens ATCC 27117, Muller-Hinton agar, 37° C., 20 hours",0.5 µg/mL
same,Antibacterial Activity MIC,[5]; Muller-Hinton agar,<= 0.008 μg/ml
same,Antibacterial Activity MIC,[6]; [26],0.5 µg/mL
same,Antibacterial Activity MIC,"[7]; Enterobacter aerogenes ATCC 29751, Muller-Hinton agar, 37° C., 20 hours",0.5 µg/mL
same,Antibacterial Activity MIC,[8],<= 0.008 μg/ml
same,Antibacterial Activity MIC,[9]; Muller-Hinton agar,0.13 µg/mL
same,Antibacterial Activity MIC,"[10]; Enterobacter cloacae ATCC 27508, Muller-Hinton agar, 37° C., 20 hours",0.13 µg/mL
same,Antibacterial Activity MIC,"[11]; Bacillus megaterium ATCC 9885, Muller-Hinton agar, 37° C., 20 hours",0.13 µg/mL
same,Antibacterial Activity MIC,"[12]; Proteus vulgaris ATCC 6059, Muller-Hinton agar, 37° C., 20 hours",0.016 µg/mL
same,Antibacterial Activity MIC,"[13]; Pseudomonas aeruginosa ATCC 10145, Muller-Hinton agar, 37° C., 20 hours",16 µg/mL
same,Antibacterial Activity MIC,[14]; [27],0.25 µg/mL
same,Antibacterial Activity MIC,"[15]; Acinetobacter calcoaceticus ATCC 15473, Muller-Hinton agar, 37° C., 20 hours",2 µg/mL
same,Antibacterial Activity MIC,[16]; Muller-Hinton agar,0.016 µg/mL
same,Antibacterial Activity MIC,"[17]; Streptococcus faecalis ATCC 29212, Muller-Hinton agar, 37° C., 20 hours",> 128 µg/mL
same,Antibacterial Activity MIC,"[18]; Pseudomonas aeruginosa ATCC 25619, Muller-Hinton agar, 37° C., 20 hours",2 µg/mL
same,Antibacterial Activity MIC,[19]; Muller-Hinton agar,0.13 µg/mL
same,Antibacterial Activity MIC,"[20]; Bacillus cereus ATCC 11778, Muller-Hinton agar, 37° C., 20 hours",64 µg/mL
same,Antibacterial Activity MIC,"[21]; Pseudomonas aeruginosa ATCC 27853, Muller-Hinton agar, 37° C., 20 hours",8 µg/mL
same,Antibacterial Activity MIC,[22]; Muller-Hinton agar,0.063 µg/mL
same,Antibacterial Activity MIC,"[23]; Citrobacter freundii ATCC 8090, Muller-Hinton agar, 37° C., 20 hours",0.13 µg/mL
same,Antibacterial Activity MIC,"[24]; Staphylococcus aureus ATCC 10537, Muller-Hinton agar, 37° C., 20 hours",0.25 µg/mL
same,Antibacterial Activity MIC,"[25]; Staphylococcus epidermidis ATCC 12228, Muller-Hinton agar, 37° C., 20 hours",0.5 µg/mL

# From patent US5292733A, “Cephalosporin compounds” (Lucky Limited, priority 1991, dated 1994)
